Measured values taken from US20180161310A1, “COMPOUNDS AND METHODS FOR THE TREATMENT OF NEUROLOGICAL DISORDERS” (Teleos Therapeutics, LLC, priority 2016, published 2018).
Where “and” joins values, the source holds several entries; their conditions need not be identical. Identical values can stand only once. Like-named read-outs stand apart in the source and are kept apart here.

What was measured:
zebrafish larvae = assay type: in vivo; details: 5 mM
Description: In an effort to determine how pharmacological inhibition of KCC2 affects zebrafish behaviors, 7 days post-fertilization (dpf) zebrafish larvae can be treated with two analogs of the selective KCC2 inhibitor, VU0463271 and VU0240551, and their behavioral responses in a battery of behavioral assays can be assessed. These behavioral assays can include a series of visual and acoustic stimuli presented to larval zebrafish in various contexts and combinations to elicit robust and reproducible patterns of activity. For example, behavioral assays can include two acoustic-stimulus-response (ASR1 and ASR2) assays, six visual-stimulus-response (VSR1-VSR6) assays, and three assays that combine acoustic and visual stimulus responses (AVSR1-AVSR3). Together, such a battery of behavioral assays use six stimuli, including red light (600 nm), blue light (420 nm), violet light (405 nm), green light (525 nm), low-intensity sound (60 dB) and high-intensity sound (70 dB). Behavioral responses of the larval zebrafish can be measured by a motion index (MI) that quantifies the motor activity of at least about 8 zebrafish larvae in each well of a 96-well plate.
Referring to FIGS. 1A-1B, zebrafish behavioral profiles can include a battery of individual behavioral assays labeled ASR1, AVSR1, ASR2, VSR1, VSR2, VSR3, VSR4, AVSR2, VSR5, AVSR3, and VSR6, as described herein. These behavioral assays can be combined to form a Motion Index (MI), which is a quantification of the motor activity of at least about 8 zebrafish larvae in each well of a 96-well plate. As shown in the representative images of FIGS. 1A-1B, zebrafish larvae were treated with DMSO (control), VU0463271 (FIG. 1A), or pentylentetrazol or PTZ (FIG. 1B).
Treatment with increasing doses of VU0463271 induced a unique and dose-dependent profile of behavioral responses, detectable at 2.5 μM and 5 μM. […] This relatively low concentration of VU0463271 elicited a reproducible behavioral profile with altered sensitivity of the fish larvae to specific combinations of stimuli. […] The increased MI in the AVSR1 and AVSR3 assays due to VU0463271 treatment reflects a seizure-like hyperexcitability in the larval fish.
Additionally, seizures have been induced in 7 dpf zebrafish larvae using pentylentetrazol (PTZ) treatment, and motor and electroencephalographic (EEG) responses were consistent with seizure phenotypes.

[1] = test system: VU0240551-induced phenotype (KCC2 inhibition) in zebrafish larvae
[2] = test system: cultured rat hippocampal neurons; assay: Gramicidin perforated patch clamp in cultured hippocampal neurons; assay type: cell-based
Experimental: Referring to FIG. 9, representative IV curves were generated (current-voltage curves) to characterise the intrinsic excitability of TT0023831 and TT0042607 in gramicidin perforated patch clamp studies, and to investigate whether the effects of the three hit compounds identified in the above-described suppressor screens translate to rodent models. The effects of these compounds were evaluated in cultured rat hippocampal neurons using the gramicidin perforated patch technique. The GABAA agonist, muscimol (1 μM), was used to measure EGABA values under basal conditions (FIG. 9). Perfusion of 30 μM TT0011235 potentiated GABAA-mediated currents, both muscimol-activated and endogenous post-synaptic potentials, and shifted the EGABA values (FIG. 9 and Appendix B). […] Treatment with 30 μM TT0042607 slowed the upstroke and repolarization, reduced the input resistant and thus, and reduced the number of open channels.

[3] = test system: PTZ-induced behavior in zebrafish larvae; assay: Suppression of PTZ-induced behavior in zebrafish larvae; assay type: in vivo; details: pre-treatment with 6 concentrations, then 5 mM PTZ
Experimental: Differences between behavioral profiles of larval zebrafish treated with KCC2 inhibitors and larval zebrafish treated with PTZ were investigated by evaluating the ability of traditional anti-seizure drugs to reverse their effects. Five drugs in at least six concentrations (by allocating 12 wells per concentration) were tested. These drugs included a benzodiazepine anxiolytic (diazepam), two AEDs that increase GABA levels in the synapse (tiagabine and valproate), a sodium channel blocker (phenytoin) and a synthetic neurosteroid GABAA positive allosteric modulator (PAM, ganaxolone).

mouse 6 Hz 44 mA model = assay: Mouse 6 Hz 44 mA model of epilepsy; assay type: in vivo; details: animals protected from seizures / number tested
Experimental: (§1) TT0023831 and TT0042607 were tested in mammalian models of epilepsy. The two compounds were tested in the mouse 6 Hz 44 mA model and the mouse maximal electroshock (MES) model. A range of doses was examined, and results were reported as the number of animals protected from seizures out of the number tested (Table 5).

[4] = test system: mouse maximal electroshock (MES) model; assay: Mouse maximal electroshock (MES) model; assay type: in vivo; details: animals protected from seizures / number tested
Experimental: as §1

Nav1.6 = Nav1.6 (Homo sapiens, UniProt Q9UQD0)
Nav1.2 = Nav1.2 (Homo sapiens, UniProt Q99250)
Nav1.1 = Nav1.1 (Homo sapiens, UniProt P35498)
[5] = test system: VU0463271-induced phenotype (KCC2 inhibition) in zebrafish larvae; assay: animal or person; details: for suppression score dose response compared with other compounds as suppressor of the hyperexcitability phenotype: zebrafish, FIG. 8 / FIG. 10
Experimental: To quantify the ability of the same drugs to reverse (or “rescue”) the phenotype caused by either 2.5 μM VU0463271 or 5 μM VU0240551, a rescue score between 0 (no rescue) and 1 (maximal theoretical rescue) was calculated (FIG. 2C). A rescue score incorporates and quantifies the degree of phenotypic reversal and the level of sedation in each concentration tested (see Materials and Methods below).
A diverse collection of 37,000 uncharacterized small molecules were used in a suppressor screen against either 2.5 μM VU0463271 (27,000 compounds) or 5 μM VU0240551 (10,000 compounds), along with 3,700 control wells treated with DMSO alone and 3,700 control wells treated with the KCC2 inhibitor. Each well of a 96-well plate containing at least about 8 zebrafish larvae was treated with a library compound or DMSO followed by treatment with the KCC2 inhibitor. Behavioral profiles pre- and post-treatment with the KCC2 inhibitor were evaluated using the behavioral assay battery described herein, and a detailed quantitative readout of about 15,000 time points was generated for each well. These behavioral profiles were used to calculate a screening score for each library compound, which incorporates and quantifies the rescue score and sedation index (see Materials and Methods).
In some cases, small molecules that alter the KCC2 inhibition phenotype may reverse the behavioral phenotype back to the normal, but could also elicit a new undesired phenotype, which is different from a normal behavior. To discriminate between these possibilities, vector algebra was used to compare each behavioral profile to the behavioral profile of DMSO-treated larvae and defined a value for the phenotypic distance from DMSO. The screen score of each compound was then plotted against its averaged phenotypic distance from DMSO (FIG. 3A) and MI (FIG. 3B) to filter out compounds that elicit a profile that is very different from the control one and compounds that reduce overall activity, respectively.
The reproducibility of the effects and the active concentration ranges of the 30 hits selected, as described above, were determined. Their rescue efficacies were retested in at least six concentrations and their rescue scores were also recalculated.
TT0023831 and six analogs were tested at a range of doses from 2.5-320 uM in a behavioral assay designed to assess the ability of compounds to suppress the effects of KCC2 inhibition. The graphs of FIG. 11 indicate the degree of suppression of the KCC2-inhibited phenotype, where a score of 1 represents complete restoration of KCC2-treated zebrafish to normal. […] Table 4 summarizes the estimated EC50 values and peak effect values for each compound.
A large number of fertilized zebrafish eggs (up to 20,000 embryos per day) were collected from group matings of wild type Ekkwill/Singapore zebrafish. Embryos were raised in hatching jars at 28° C. on a 14/10 hour light/dark cycle until 3 days post fertilization (dpf), then transferred to an incubator under the same conditions until 7 dpf. Groups of eight larvae (7 dpf) were distributed into the wells of a clear flat bottom square well 96-well plates filled with E3 medium (300 μl). Larvae were then incubated at 25° C. on the bench top for one-hour chemical treatment and subsequent experiments.
A library containing 37,000 uncharacterized small molecules was purchased from Life Chemicals and dissolved in DMSO at a stock concentration of 10 mM.

[6] = 10-point CRC, TT002381 to a maximum of 100 μM

Chain of Nav1.2 (Q99250 whole entry): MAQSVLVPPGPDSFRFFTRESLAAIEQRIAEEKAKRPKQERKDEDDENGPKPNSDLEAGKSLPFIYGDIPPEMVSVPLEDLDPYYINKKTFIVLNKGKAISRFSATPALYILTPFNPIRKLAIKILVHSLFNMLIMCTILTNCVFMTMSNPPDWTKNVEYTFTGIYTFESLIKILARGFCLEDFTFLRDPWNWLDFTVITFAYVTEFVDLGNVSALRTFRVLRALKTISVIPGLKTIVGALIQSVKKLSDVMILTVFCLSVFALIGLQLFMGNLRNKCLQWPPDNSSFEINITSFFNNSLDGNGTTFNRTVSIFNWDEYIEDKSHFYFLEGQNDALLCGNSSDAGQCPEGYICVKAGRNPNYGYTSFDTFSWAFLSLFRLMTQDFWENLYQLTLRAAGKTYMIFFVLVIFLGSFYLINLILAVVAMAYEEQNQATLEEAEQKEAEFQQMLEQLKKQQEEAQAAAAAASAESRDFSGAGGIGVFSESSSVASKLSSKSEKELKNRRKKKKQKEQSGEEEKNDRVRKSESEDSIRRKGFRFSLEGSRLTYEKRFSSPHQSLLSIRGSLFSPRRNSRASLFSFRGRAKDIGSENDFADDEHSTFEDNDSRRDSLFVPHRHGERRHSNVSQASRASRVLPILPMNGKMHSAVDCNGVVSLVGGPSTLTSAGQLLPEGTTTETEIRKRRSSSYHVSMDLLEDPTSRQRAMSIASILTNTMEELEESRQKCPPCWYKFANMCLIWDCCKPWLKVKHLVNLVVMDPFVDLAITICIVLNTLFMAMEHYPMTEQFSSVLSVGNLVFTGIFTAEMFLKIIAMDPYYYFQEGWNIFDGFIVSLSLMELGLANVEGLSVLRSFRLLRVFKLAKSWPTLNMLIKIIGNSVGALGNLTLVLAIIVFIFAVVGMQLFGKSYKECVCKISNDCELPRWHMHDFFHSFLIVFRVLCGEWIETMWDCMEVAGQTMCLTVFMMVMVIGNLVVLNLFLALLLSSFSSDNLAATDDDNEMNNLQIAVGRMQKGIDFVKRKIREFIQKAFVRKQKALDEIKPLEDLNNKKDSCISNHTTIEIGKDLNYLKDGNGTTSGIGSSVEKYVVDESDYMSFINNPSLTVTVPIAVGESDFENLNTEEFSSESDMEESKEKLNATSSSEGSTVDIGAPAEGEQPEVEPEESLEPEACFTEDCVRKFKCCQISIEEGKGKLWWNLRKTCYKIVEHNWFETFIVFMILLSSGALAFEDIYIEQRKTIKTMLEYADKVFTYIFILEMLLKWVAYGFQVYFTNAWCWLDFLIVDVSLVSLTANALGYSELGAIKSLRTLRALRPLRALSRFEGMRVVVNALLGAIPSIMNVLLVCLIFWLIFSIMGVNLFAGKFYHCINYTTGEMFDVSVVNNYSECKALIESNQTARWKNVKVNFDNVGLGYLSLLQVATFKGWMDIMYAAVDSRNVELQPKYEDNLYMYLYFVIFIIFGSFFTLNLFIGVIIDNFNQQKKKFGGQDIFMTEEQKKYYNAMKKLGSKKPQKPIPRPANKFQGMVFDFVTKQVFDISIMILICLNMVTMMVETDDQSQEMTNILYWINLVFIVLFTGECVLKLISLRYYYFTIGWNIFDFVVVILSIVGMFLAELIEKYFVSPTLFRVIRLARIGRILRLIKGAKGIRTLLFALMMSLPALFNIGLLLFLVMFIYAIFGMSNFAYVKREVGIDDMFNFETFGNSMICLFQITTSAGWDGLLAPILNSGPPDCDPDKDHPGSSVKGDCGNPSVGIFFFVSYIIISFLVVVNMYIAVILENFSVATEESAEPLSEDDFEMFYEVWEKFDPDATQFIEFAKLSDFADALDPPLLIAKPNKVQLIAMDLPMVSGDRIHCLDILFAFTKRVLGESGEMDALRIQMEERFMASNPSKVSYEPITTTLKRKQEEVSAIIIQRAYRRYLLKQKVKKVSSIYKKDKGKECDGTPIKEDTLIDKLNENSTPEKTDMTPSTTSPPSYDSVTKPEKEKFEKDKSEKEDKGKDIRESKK
Chain of Nav1.6 (Q9UQD0 whole entry): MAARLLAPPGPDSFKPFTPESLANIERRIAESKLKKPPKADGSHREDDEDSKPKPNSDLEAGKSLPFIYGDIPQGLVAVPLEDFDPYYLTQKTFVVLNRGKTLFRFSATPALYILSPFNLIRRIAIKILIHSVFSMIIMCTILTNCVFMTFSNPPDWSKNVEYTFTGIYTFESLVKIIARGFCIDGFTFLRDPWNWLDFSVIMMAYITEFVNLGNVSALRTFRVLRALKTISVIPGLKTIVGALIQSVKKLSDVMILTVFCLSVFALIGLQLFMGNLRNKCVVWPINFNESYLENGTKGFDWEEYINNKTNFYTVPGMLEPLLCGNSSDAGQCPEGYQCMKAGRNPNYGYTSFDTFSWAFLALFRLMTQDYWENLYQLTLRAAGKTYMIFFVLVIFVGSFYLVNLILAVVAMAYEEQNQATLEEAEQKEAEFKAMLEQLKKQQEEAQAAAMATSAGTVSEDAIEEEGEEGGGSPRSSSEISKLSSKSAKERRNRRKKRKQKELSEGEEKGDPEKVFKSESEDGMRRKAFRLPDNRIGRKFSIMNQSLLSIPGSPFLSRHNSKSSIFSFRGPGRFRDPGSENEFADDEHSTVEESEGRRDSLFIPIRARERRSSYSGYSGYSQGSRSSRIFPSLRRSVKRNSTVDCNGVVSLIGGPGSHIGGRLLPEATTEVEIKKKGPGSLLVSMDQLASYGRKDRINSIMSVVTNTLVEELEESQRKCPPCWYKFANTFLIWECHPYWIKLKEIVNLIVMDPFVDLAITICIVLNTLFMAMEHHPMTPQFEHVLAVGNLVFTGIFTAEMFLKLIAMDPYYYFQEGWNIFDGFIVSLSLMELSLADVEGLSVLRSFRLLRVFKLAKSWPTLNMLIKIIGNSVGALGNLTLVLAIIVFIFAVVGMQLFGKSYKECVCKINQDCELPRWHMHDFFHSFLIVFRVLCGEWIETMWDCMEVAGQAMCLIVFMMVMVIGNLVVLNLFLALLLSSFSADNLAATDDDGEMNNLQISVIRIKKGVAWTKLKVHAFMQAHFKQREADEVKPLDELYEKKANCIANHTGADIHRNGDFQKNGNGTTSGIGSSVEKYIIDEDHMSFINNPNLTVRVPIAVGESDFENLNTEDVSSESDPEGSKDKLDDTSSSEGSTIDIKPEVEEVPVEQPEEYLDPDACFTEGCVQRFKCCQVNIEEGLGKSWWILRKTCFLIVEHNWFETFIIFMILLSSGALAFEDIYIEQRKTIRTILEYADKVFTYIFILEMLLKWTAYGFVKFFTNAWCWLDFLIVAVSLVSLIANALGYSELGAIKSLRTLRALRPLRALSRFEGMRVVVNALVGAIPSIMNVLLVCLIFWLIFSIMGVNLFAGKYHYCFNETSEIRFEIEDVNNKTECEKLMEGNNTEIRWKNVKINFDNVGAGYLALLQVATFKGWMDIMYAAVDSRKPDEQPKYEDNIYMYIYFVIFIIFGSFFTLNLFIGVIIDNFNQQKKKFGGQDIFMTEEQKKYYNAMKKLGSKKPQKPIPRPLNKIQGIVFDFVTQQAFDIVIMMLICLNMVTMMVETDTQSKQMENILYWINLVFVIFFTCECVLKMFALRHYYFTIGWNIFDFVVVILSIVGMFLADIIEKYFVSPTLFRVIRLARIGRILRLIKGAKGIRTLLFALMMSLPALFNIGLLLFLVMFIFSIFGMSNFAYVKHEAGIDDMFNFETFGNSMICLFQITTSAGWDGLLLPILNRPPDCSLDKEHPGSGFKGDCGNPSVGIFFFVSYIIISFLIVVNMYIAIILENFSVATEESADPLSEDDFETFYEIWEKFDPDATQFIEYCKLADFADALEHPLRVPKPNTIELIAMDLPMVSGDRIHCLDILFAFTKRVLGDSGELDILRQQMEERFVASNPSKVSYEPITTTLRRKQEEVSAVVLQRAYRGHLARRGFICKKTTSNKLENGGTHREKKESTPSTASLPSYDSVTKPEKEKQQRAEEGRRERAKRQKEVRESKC

Row | SMILES | suppression of PTZ-induced hyperactivity in response to the different stimuli [3] | Rescued (6 Hz model) (mouse 6 Hz 44 mA model; 100 mg/kg) | Rescued (MES model) ([4]; 10 mg/kg) | Rescued (MES model) ([4]; 30 mg/kg) | Rescued (MES model) ([4]; 100 mg/kg) | inhibition of Nav1.6 (Nav1.6; [6]) | inhibition of Nav1.2 (Nav1.2; [6]) | inhibition of Nav1.1 (Nav1.1; [6]) | effect on GABAA-mediated currents [2] | firing rates of the cultured neurons [2] | spike initiation [2] | input resistant ([2]; 30 μM) | number of open channels (open at rest) ([2]; 30 μM) | suppression score dose response compared with other compounds as suppressor of the hyperexcitability phenotype [5] | also measured
1 | C1CCc2nnnn2CC1 [PTZ, pentylentetrazol] | – | – | – | – | – | – | – | – | – | – | – | – | – | – | activity and MI in response to multiple light and acoustic stimuli (zebrafish larvae): induced hyperactivity
2 | Cc1ccc(-c2nc(N3CCOCC3)sc2C(=O)NCC2CCCO2)cc1 (stereo not drawn) [TT0011235] | attenuated | – | – | – | – | – | – | – | – | – | – | – | – | – | effect on overall MI ([1]; at concentrations higher than 20 μM): inhibitory effect; concentration of most effective phenotypic reversal ([1]; tested at 2.5-80 μM): 20 µM; rescue of VU0240551-induced behaviors ([1]; tested at 2.5-80 μM): rescued; EGABA values ([2]; perfusion of 30 μM): shifted; GABAA-mediated currents (muscimol-activated and endogenous post-synaptic potentials) ([2]; perfusion of 30 μM): potentiated
3 | COc1cc(C)c(C(C)C)cc1S(=O)(=O)NCCN1CCOCC1 [TT0023831, 5-isopropyl-2-methoxy-4-methyl-N-(2-morpholinoethyl)benzene-sulfonamide] | did not | 3/8 | 0/4 | 2/4 | 2/4 | concentration-dependent inhibition | concentration-dependent inhibition | concentration-dependent inhibition | neither TT0023831 nor TT0042607 appeared to have an effect | reduced the firing rates | delayed spike initiation | without changing | without affecting | outperform both tiagabine and valproic acid | Rescued (6 Hz model) (mouse 6 Hz 44 mA model; 50 mg/kg): 0/8; Rescued (6 Hz model) (mouse 6 Hz 44 mA model; 200 mg/kg): 7/8; action potential threshold ([2]; 30 μM): raising; rheobase ([2]; 30 μM): increased; overall motor activity of the larvae ([5]; 80 μM, reduced the rescue score): reduced the overall motor activity; EC50 ([5]; Danio rerio, read-out: in vivo EC50): 5 µM; peak activity ([5]; concentration of peak effect, doses 2.5-320 uM, suppression of KCC2-inhibited phenotype in zebrafish): 20 µM; concentration of best phenotypic reversal ([5]; tested at 2.5-80 μM, high rescue scores): 20 µM and 40 µM
4 | CCCOc1nn(CCC)cc1C(=O)Nc1ccc(C(F)(F)F)cc1 [TT0042607, 3-propoxy-1-propyl-N-(4-(trifluoromethyl)phen-yl)-1H-pyrazole-4-carboxamide] | attenuated | 1/4 | 0/4 | 0/4 | 2/4 | – | – | – | neither TT0023831 nor TT0042607 appeared to have an effect | reduced the firing rates | delayed spike initiation | reduced | reduced | outperform both tiagabine and valproic acid | Rescued (6 Hz model) (mouse 6 Hz 44 mA model; 10 mg/kg): 0/4; Rescued (6 Hz model) (mouse 6 Hz 44 mA model; 30 mg/kg): 0/4; upstroke and repolarization ([2]; 30 μM): slowed; effect on the overall MI ([5]; sub-micromolar or higher concentrations (tested 0.08-2.5 μM)): no effect; rescue of VU0463271-induced behaviors ([5]; tested at 0.08-2.5 μM, already at sub-micromolar concentrations): rescued
5 | NC1=N[C@H](O)[C@H]2[C@H]3O[C@]4(O)O[C@@H]([C@@H](O)[C@@]2(N1)[C@@H]4O)[C@]3(O)CO [TTX, tetrodotoxin] | – | – | – | – | – | – | – | – | – | – | – | – | – | – | inhibition of Nav1.6 (Nav1.6): concentration-dependent inhibition; inhibition of Nav1.2 (Nav1.2): concentration-dependent inhibition; inhibition of Nav1.1 (Nav1.1): concentration-dependent inhibition
6 | CCCCNc1ccc(C(=O)OCCN(C)C)cc1 [tetracaine] | – | – | – | – | – | concentration-dependent inhibition | concentration-dependent inhibition | concentration-dependent inhibition | – | – | – | – | – | – | –
